In patent US9775895B2, “HIV therapeutics and methods of making and using same” (priority 2012, dated 2017):
Non-standard residues stand in square brackets, D forms with d. Residues, ends and D or L forms follow the SMILES beside them. No end group written: not given here. sY = N[C@@H](Cc1ccc(OS(=O)(=O)O)cc1)C(=O)O

Experiments:
HIV-1 BaL = format: cell-based; conditions: acute infection, primary human CD4+ T cells; read-out: half maximal inhibitory concentration (IC50) for infection by HIV-1 BaL
Excerpt: (§1) FIGS. 3A-3H are a series of graphs illustrating that a tyrosine-sulfated peptide containing the V2 α-helix binds to gp120, competes with an anti-CCR5-binding site antibody for HIV-1 virion binding, and blocks HIV-1 entry, infection and fusion. (A) Effect of tyrosine-sulfated V2-loop (pV2α-Tys) and CCR5 N-terminus (pCCR5-Tys) mimetic peptides on HIV-1 virion capture by mAb 412d, a sulfated mAb directed to the CCR5-binding site at the base of V3. Unsulfated homologous peptides (pV2α and pCCR5) were tested in parallel as controls. Infectious viral stocks from HIV-1 BaL were pre-treated with the peptides (each at 50 μM) and then incubated with immunomagnetic beads armed with mAb 412d; beads armed with mAb 2G12 (directed to a glycan-dependent epitope on the gp120 outer domain) were used in parallel as a control. Asterisks denote significant differences with the untreated control (p<0.05 by unpaired Student's t test). (B) Dose-dependent effect of peptides pV2α and pV2α-Tys on cell-free infection by HIV-1 BaL in primary CD4^+ T cells. […] (F) Binding of gp120 to immobilized peptide pV2α as assessed by surface plasmon resonance analysis. […] (H) Comparison between the experimentally determined V3 interaction of the tyrosine sulfated CDRH3 region of mAb 412d and the modeled V3 interaction of a tyrosine sulfated peptide derived from the central region of V2. […]

primary CD4+ T cells = assay: Cell viability of primary CD4+ T cells by timed flow cytometry counting; format: cell-based, human; conditions: activated primary CD4+ T cells cultured 7 days
Procedure: FIG. 9 is a graph illustrating the effect of V2-derived peptides pV2α and pV2α-Tys on viability of primary CD4^+ T cells. Purified human peripheral blood CD4^+ T cells previously activated in vitro with phytohemagglutinin and IL-2 were treated with each peptide at the indicated concentrations and cultured for 7 days. Cell viability was measured by quantitative counting using timed flow cytometry on a FACSCanto II.
HIV-1 isolates, infection, entry and cell viability assays. Details about the HIV-1 isolates used in the this study, the infection assay, the entry assay and the cell viability assay have been reported previously (Auerbach et al., Proc Natl Acad Sci USA 109, 9569-9574, 2012).

[1] = target: T1, recombinant soluble gp120 (isolate YU2) (Human immunodeficiency virus type 1 group M subtype B, UniProt P35961); assay: Surface plasmon resonance, gp120 binding to immobilized biotinylated peptide; parameters: species or system HIV-1
T1 construct: recombinant soluble gp120 (isolate YU2)
Excerpt: Binding of gp120 to immobilized peptide pV2α as assessed by surface plasmon resonance analysis (FIG. 3F). The biotinylated peptide was bound to a neutravidin-coated CM3 sensor chip and recombinant soluble gp120 (isolate YU2) was flown over the chip in the liquid phase. […] Residuals of the fit, which has an RMSD of 0.62 RU shown twice on different scales to facilitate their critical inspection (lower two graphs).

recombinant soluble CD4 = target: T2, recombinant soluble CD4 (Homo sapiens, UniProt P01730); assay: Surface plasmon resonance, soluble CD4 binding to immobilized biotinylated peptide; conditions: koff-KD distribution model
T2 construct: recombinant soluble CD4 was flown over the chip
Procedure: FIG. 12 is a graph illustrating binding of recombinant soluble CD4 to peptide pV2α. The biotinylated peptide was bound to a neutravidin-coated CM3 sensor chip and recombinant soluble CD4 was flown over the chip in the liquid phase. Experimental binding traces were recorded for sCD4 (at the concentration of […]) binding to 235 RU pV2α at a flow rate of […]; best fit traces (red lines) were derived from modeling with koff−KD distribution. (Lower graphs) Residuals of the fit, which has an rmsd of 0.47 RU shown twice on different scales to facilitate their critical inspection.
Binding of recombinant soluble CD4 to peptide pV2α was evaluated by surface plasmon resonance (FIG. 12). The biotinylated peptide was bound to a neutravidin-coated sensor chip and recombinant soluble CD4 was flown over the chip in the liquid phase. Experimental binding traces were recorded for sCD4 (at the concentration of […]) binding to 235 RU pV2α at a flow rate of […]; best fit traces (red lines) were derived from modeling with koff−KD distribution.

[2] = tested on: gp120 tyrosine sulfation (sulfotransferases); assay: Western blot of tyrosine sulfation in recombinant gp120 produced in CHO cells; format: cell-based; conditions: 30 mM; recombinant gp120 BaL
HeLa and HEK293 cells = assay: Viability of cell lines by timed flow cytometry counting; format: cell-based; conditions: 30 mM, 72 hrs
Procedure: FIGS. 2L-2O illustrate the different efficiency of V2 tyrosine sulfation in recombinant gp120 produced in epithelial cell lines versus virion-associated gp120 produced by primary CD4^+ T cells. (L) Detection of sulfated tyrosines by Western blot in recombinant gp120 produced in CHO cells. (M) Lack of adverse effects of sodium chlorate treatment or TPST2 overexpression on the viability of HeLa and HEK293 cells. The cell lines were treated with 30 mM sodium chlorate (NaClO3) or transfected with a plasmid vector expressing TPST2 and cultured for 72 hrs. Cell viability was measured by quantitative counting using timed flow cytometry on a FACSCanto II and is expressed as percent viable cell recovery. (N) Side-by-side comparison of the extent of tyrosine sulfation detected by Western blot in a reference sulfated mAb (412d), in virion-associated gp120 produced by infected primary human CD4^+ T cells (V-gp120), and in recombinant gp120 produced in HEK293 cells (R-gp120). Identical amounts of mAb 412d and purified gp120 were loaded on the gels. For V-gp120, the protein was immunoprecipitated directly from the infectious viral stocks. The antibodies used for Western blots and the methods used for relative quantification were the same as in (L). […]

HIV-1 BaL ΔV2 gp160 = assay: Fusion neutralization of HIV-1 BaL ΔV2 with or without NaClO3 pre-treatment; format: cell-based; conditions: 30 mM, 72 hrs pre-treatment
[3] = tested on: HIV-1 BaL virions captured by mAb 412d (CCR5-binding site at the base of V3); assay: HIV-1 virion-capture assay with mAb 412d-armed immunomagnetic beads; conditions: peptides at 50 μM; virions pre-treated with sCD4 5 μg/ml
Excerpt: as §1

[4] = tested on: CD4-activated gp120 (BaL) binding to mAb 412d; assay: Surface plasmon resonance, peptide effect on gp120 binding to immobilized mAb 412d; parameters: species or system HIV-1; conditions: peptide at 166 μM; gp120 BaL 100 nM with sCD4
Procedure: (§2) The interaction of the tyrosine-sulfated V2 peptide with the 412d-binding site was further characterized by surface plasmon resonance (SPR).
(§3) Surface plasmon resonance. Recombinant gp120 from HIV-1 BaL (at 100 nM) obtained from the NIH AIDS Reagent Program was pre-incubated with or without a 2-fold molar excess of two-domain sCD4 (at 200 nM) and passed over a Biacore CM5 sensor surface in the presence or absence of the indicated peptides (at 166 μM) for 2 min at 25 μl/min in HBS supplemented with 3 mM EDTA and 0.005% Tween-20 followed by a 2 min dissociation phase using a Biacore 3000 biosensor (Biacore, Inc.). Surfaces were regenerated after each cycle by a brief injection of 4.5M MgCl2.

[5] = tested on: gp120 (BaL) binding to mAb F105; assay: Surface plasmon resonance, peptide effect on gp120 binding to control mAb F105; parameters: species or system HIV-1; conditions: peptide at 166 μM; specificity control
Procedure: as §2, §3

CC[C@H](C)[C@H](NC(=O)[C@H](CC(=O)O)NC(=O)[C@H](CC(C)C)NC(=O)[C@H](CCC(=O)O)NC(=O)[C@H](Cc1ccc(OS(=O)(=O)O)cc1)NC(=O)[C@H](Cc1ccccc1)NC(=O)[C@H](CC(C)C)NC(=O)[C@H](C)NC(=O)[C@H](Cc1ccc(OS(=O)(=O)O)cc1)NC(=O)[C@H](CCC(=O)O)NC(=O)[C@H](CCCCN)NC(=O)[C@H](CCC(N)=O)NC(=O)[C@@H](NC(=O)[C@@H](N)CCCCN)C(C)C)C(=O)N[C@H](C(=O)N1CCC[C@H]1C(=O)N[C@H](C(=O)N[C@@H](CC(=O)O)C(=O)O)[C@@H](C)CC)C(C)C [pV2α-Tys] (H-KVQKE[sY]ALF[sY]ELDIVPID-OH)
IC50 (HIV-1 BaL): 15 µM
effect on cell viability (primary CD4+ T cells): no negative effects

CC[C@H](C)[C@H](NC(=O)[C@H](CC(=O)O)NC(=O)[C@H](CC(C)C)NC(=O)[C@H](CCC(=O)O)NC(=O)[C@H](Cc1ccc(O)cc1)NC(=O)[C@H](Cc1ccccc1)NC(=O)[C@H](CC(C)C)NC(=O)[C@H](C)NC(=O)[C@H](Cc1ccc(O)cc1)NC(=O)[C@H](CCC(=O)O)NC(=O)[C@H](CCCCN)NC(=O)[C@H](CCC(N)=O)NC(=O)[C@@H](NC(=O)[C@@H](N)CCCCN)C(C)C)C(=O)N[C@H](C(=O)N1CCC[C@H]1C(=O)N[C@H](C(=O)N[C@@H](CC(=O)O)C(=O)O)[C@@H](C)CC)C(C)C [pV2α] (H-KVQKEYALFYELDIVPID-OH)
Kd [1]: 0.0009 µM
koff ([1]; read-out: koff of gp120 binding to immobilized peptide): 6.4e-05 s⁻¹
koff (recombinant soluble CD4): 0.013 s⁻¹
effect on cell viability (primary CD4+ T cells): no negative effects

[Na+].[O-][Cl+2]([O-])[O-] [sodium chlorate]
effect on gp120 tyrosine sulfation [2]: totally abrogated gp120 sulfation
effect on cell viability (HeLa and HEK293 cells): no negative effects
effect on cell viability (HeLa and HEK293 cells; listed as NaClO3): no adverse effects
effect on neutralization sensitivity of HIV-1 BaL ΔV2 (HIV-1 BaL ΔV2 gp160): nor did it alter

pCCR5-Tys: tyrosine-sulfated peptide derived from the CCR5 N-terminus (DYQVSSPIYDINYYTSE; also: tyrosine-sulfated, sites not given here)
inhibition of virion capture by mAb 412d [3]: specifically inhibited
inhibition of binding of surface-bound mAb 412d to CD4-activated gp120 [4]: blocked
inhibition of gp120 binding to mAb F105 [5]: lack of inhibition
